Counter-ions that a name gives are not always drawn. Like-named read-outs stand apart in the source and are kept apart here. Each block holds one molecule with its values, some of them ahead of it.
What was measured:
[1] = biological target: T1, heterodimeric receptor (T1R2/T1R3), TMD2 binding site (Homo sapiens, UniProt Q7RTX0+Q8TE23); test: Competition binding with [3H]-Perillartine as radioligand; conditions: for Competitive inhibition with perillartine: radioligand [3H]-Perillartine; for Ki (mM): radiolabeled ligand perillartine, TMD2 binding, Table 6
T1 sequence (Q8TE23 20-839): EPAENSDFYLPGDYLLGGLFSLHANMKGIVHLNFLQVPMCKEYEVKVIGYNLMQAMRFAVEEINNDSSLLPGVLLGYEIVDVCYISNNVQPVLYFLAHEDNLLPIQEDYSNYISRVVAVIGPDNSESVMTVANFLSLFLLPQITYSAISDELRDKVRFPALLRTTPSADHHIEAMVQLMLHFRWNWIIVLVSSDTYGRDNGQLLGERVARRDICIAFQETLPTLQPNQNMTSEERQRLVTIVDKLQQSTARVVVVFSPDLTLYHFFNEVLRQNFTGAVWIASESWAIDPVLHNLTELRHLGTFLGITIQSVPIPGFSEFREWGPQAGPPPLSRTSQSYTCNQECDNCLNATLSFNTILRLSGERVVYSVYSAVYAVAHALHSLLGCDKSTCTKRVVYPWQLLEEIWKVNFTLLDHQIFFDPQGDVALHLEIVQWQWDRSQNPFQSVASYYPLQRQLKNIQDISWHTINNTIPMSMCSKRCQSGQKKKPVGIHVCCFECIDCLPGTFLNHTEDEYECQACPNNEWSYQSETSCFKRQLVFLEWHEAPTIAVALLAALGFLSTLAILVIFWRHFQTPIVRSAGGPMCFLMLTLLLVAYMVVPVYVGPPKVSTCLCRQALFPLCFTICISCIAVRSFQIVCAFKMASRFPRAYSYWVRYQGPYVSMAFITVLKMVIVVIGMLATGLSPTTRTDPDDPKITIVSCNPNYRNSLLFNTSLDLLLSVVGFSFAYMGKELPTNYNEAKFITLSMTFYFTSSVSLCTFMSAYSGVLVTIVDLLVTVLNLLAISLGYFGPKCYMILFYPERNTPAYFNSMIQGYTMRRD
T1 sequence (Q7RTX0 21-852): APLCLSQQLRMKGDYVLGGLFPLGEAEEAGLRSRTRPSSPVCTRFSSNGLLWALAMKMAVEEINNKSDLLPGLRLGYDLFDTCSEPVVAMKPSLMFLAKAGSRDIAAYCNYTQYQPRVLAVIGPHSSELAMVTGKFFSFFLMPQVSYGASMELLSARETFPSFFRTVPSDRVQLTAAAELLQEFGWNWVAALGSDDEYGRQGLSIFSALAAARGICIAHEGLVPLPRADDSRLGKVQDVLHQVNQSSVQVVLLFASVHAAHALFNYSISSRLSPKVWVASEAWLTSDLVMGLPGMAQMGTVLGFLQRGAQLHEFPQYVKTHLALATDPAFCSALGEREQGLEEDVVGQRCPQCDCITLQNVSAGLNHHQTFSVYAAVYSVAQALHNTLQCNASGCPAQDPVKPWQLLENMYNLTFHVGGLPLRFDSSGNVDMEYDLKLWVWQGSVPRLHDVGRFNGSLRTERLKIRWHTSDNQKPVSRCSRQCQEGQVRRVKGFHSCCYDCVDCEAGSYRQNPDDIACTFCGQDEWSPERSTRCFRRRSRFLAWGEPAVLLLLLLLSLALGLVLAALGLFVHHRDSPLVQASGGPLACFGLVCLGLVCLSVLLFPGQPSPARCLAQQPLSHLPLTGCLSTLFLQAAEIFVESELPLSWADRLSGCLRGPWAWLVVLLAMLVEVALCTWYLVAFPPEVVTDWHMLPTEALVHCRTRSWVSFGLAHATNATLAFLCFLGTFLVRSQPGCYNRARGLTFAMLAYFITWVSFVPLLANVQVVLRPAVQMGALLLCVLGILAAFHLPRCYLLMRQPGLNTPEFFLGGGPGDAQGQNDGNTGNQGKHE

[2] = biological target: human T1R2/T1R3 sweet taste receptor; conditions: HEK293 stably expressing T1R2/T1R3, FLIPR calcium mobilization; cited from earlier work
[3] = biological target: extracellular amino-terminal domain (ATD) of human T1R2; conditions: circular dichroism; cited from earlier work
[4] = system: human T1R2/T1R3 heterodimers; conditions: transiently transfected, fluorescent calcium biosensor; cited from earlier work
[5] = biological target: T2, heterodimeric receptor (T1R2/T1R3), presumed VFD2 binding site (Homo sapiens, UniProt Q7RTX0+Q8TE23); test: Competition binding with [3H]-Rebaudioside B as radioligand; conditions: for Competitive inhibition with RebB: radioligand [3H]-Rebaudioside B; for Ki (mM): radiolabeled ligand RebB, VFD2 binding, Table 5
T2 sequence (Q8TE23 20-839): T1 sequence (Q8TE23 20-839)
T2 sequence (Q7RTX0 21-852): T1 sequence (Q7RTX0 21-852)

human T1R2 = conditions: human T1R2, intrinsic fluorescence; cited from earlier work
[6] = biological target: T3, heterodimeric receptor (T1R2/T1R3), TMD3 binding site (Homo sapiens, UniProt Q7RTX0+Q8TE23); test: Competition binding with [3H]-lactisole as radioligand; conditions: for Competitive inhibition with lactisole: radioligand [3H]-lactisole
T3 sequence (Q8TE23 20-839): T1 sequence (Q8TE23 20-839)
T3 sequence (Q7RTX0 21-852): T1 sequence (Q7RTX0 21-852)

[7] = biological target: T4, heterodimeric receptor (T1R2/T1R3) (Homo sapiens, UniProt Q7RTX0+Q8TE23); test: Effect of GTP and GDP on radioligand binding; conditions: for Inhibition of [3H]-Lactisole binding: radioligand [3H]-lactisole
T4 sequence (Q8TE23 20-839): T1 sequence (Q8TE23 20-839)
T4 sequence (Q7RTX0 21-852): T1 sequence (Q7RTX0 21-852)

[8] = biological target: human sweet taste receptor; conditions: FLIPR assay; cited from earlier work
[9] = biological target: human sweet taste receptor; conditions: DMR assay; cited from earlier work
[10] = cited from earlier work
[11] = biological target: T5, human T1R2/T1R3 heterodimer sweet taste receptors (Homo sapiens, UniProt Q7RTX0+Q8TE23); test: FLOWER label-free binding to stabilized receptor on microtoroid
T5 sequence (Q8TE23 20-839): T1 sequence (Q8TE23 20-839)
T5 sequence (Q7RTX0 21-852): T1 sequence (Q7RTX0 21-852)

[12] = biological target: T6, heterodimeric receptor (T1R2/T1R3), VFD2 and VFD3 (Homo sapiens, UniProt Q7RTX0+Q8TE23); test: Kinetic binding of [14C]-sucrose, taste bud cell membranes
T6 sequence (Q8TE23 20-839): T1 sequence (Q8TE23 20-839)
T6 sequence (Q7RTX0 21-852): T1 sequence (Q7RTX0 21-852)

bovine taste bud cells = conditions: cited from earlier work
[13] = biological target: T7, heterodimeric receptor (T1R2/T1R3), TMD2 site (Homo sapiens, UniProt Q7RTX0+Q8TE23); test: Kinetic binding of [3H]-Perillartine, taste bud cell membranes
T7 sequence (Q8TE23 20-839): T1 sequence (Q8TE23 20-839)
T7 sequence (Q7RTX0 21-852): T1 sequence (Q7RTX0 21-852)

[14] = biological target: T8, heterodimeric receptor (T1R2/T1R3), presumed VFD2 site (Homo sapiens, UniProt Q7RTX0+Q8TE23); test: Kinetic binding of [3H]-Rebaudioside B, taste bud cell membranes
T8 sequence (Q8TE23 20-839): T1 sequence (Q8TE23 20-839)
T8 sequence (Q7RTX0 21-852): T1 sequence (Q7RTX0 21-852)

[15] = read-out: binding constant Kd, TMD3 open (+C20), 10 µM C20
[16] = read-out: binding constant Kd, TMD3 open (No C20)
[17] = from kinetic binding, ratio koff/kon

- Competitive inhibition with perillartine [1]: high levels of inhibition
- Competitive inhibition with RebB [5]: inhibited
- Competitive inhibition with lactisole [6]: do not compete
Molecule: CC1=CC(=O)NS(=O)(=O)O1 [AceK, Acesulfame K]
- EC50 [2]: 125 µM
- Kd [3]: 100 µM
- EC50 [4]: 213 µM
- Kd (human T1R2): 164 µM

- Ki (mM) [1]: Ambiguous
- Competitive inhibition with perillartine [1]: did not show inhibition
- Ki [5]: 1.35 mM
- Competitive inhibition with RebB [5]: positive inhibition
Molecule: N=C(N)NC(=O)c1nc(Cl)c(N)nc1N [Amiloride, amiloride HCL]

- Inhibition of [3H]-Lactisole binding [7]: No inhibition
- IC50 ([7]; read-out: IC50, inhibition of Rebaudioside B binding, radioligand [3H]-Rebaudioside B): 2.15 mM
Molecule: Nc1nc2c(ncn2[C@@H]2O[C@H](COP(=O)(O)OP(=O)(O)O)[C@@H](O)[C@H]2O)c(=O)[nH]1 [GDP, guanosine diphosphate]

- IC50 ([7]; IC50, inhibition of Rebaudioside B binding, radioligand [3H]-Rebaudioside B): 9.22 mM
- IC50 ([7]; IC50, inhibition of perillartine binding, radioligand [3H]-Perillartine): 13.2 mM
- Inhibition of [3H]-Lactisole binding [7]: No inhibition
Molecule: Nc1nc2c(ncn2[C@@H]2O[C@H](COP(=O)(O)OP(=O)(O)OP(=O)(O)O)[C@@H](O)[C@H]2O)c(=O)[nH]1 [GTP, guanosine triphosphate]

Molecule: C=C(C)[C@@H]1CC=C(/C=N/O)CC1 [Perillartine]
- EC50 [2]: 1.45 µM
- EC50 [4]: 2.54 µM
- Kd (human T1R2): 373 µM

Molecule: C=C1C[C@@]23CC[C@H]4[C@@](C)(CCC[C@@]4(C)C(=O)O[C@@H]4O[C@H](CO)[C@@H](O)[C@H](O)[C@H]4O)[C@@H]2CC[C@]1(O[C@@H]1O[C@H](CO)[C@@H](O)[C@H](O[C@@H]2O[C@H](CO)[C@@H](O)[C@H](O)[C@H]2O)[C@H]1O[C@@H]1O[C@H](CO)[C@@H](O)[C@H](O)[C@H]1O)C3 [RebA]
- EC50 [2]: 14.4 µM
- EC50 [8]: 29 µM
- EC50 [9]: 57 µM
- Sweetness at 300 ppm [10]: 5.90

- Hill slope nH ([11]; TMD3 open (No C20)): 0.22
- Kd [11, 15]: 0.046 nM
- Kd [11, 16]: 2.8 nM
Molecule: C=C1C[C@@]23CC[C@H]4[C@@](C)(CCC[C@@]4(C)C(=O)O[C@@H]4O[C@H](CO)[C@@H](O)[C@H](O)[C@H]4O[C@@H]4O[C@H](CO)[C@@H](O)[C@H](O)[C@H]4O)[C@@H]2CC[C@]1(O[C@@H]1O[C@H](CO)[C@@H](O)[C@H](O[C@@H]2O[C@H](CO)[C@@H](O)[C@H](O)[C@H]2O)[C@H]1O[C@@H]1O[C@H](CO)[C@@H](O)[C@H](O)[C@H]1O)C3 [RebD, Rebaudioside D]
- Sweetness at 300 ppm [10]: 6.15

- Ki (mM) [1]: Ambiguous
- Ki (mM) [5]: Ambiguous
- Competitive inhibition with RebB [5]: ambiguous binding inhibition
- Hill slope nH ([11]; TMD2 open (+C20)): 0.75
- Hill slope nH ([11]; TMD2 open (No C20)): 0.30
- Hill slope nH ([11]; TMD3 open (No C20)): 0.55
- Kd ([11]; read-out: binding constant Kd, TMD2 open (+C20), 10 µM C20): 0.28 nM
- Kd [11, 15]: 2.6 nM
- Kd [11, 16]: 22 nM
- Ki ([6]; radiolabeled ligand lactisole, TMD3 binding, Table 4): 11.8 mM
- Competitive inhibition with lactisole [6]: positive inhibition
Molecule: C=C1C[C@@]23CC[C@H]4[C@@](C)(CCC[C@@]4(C)C(=O)O[C@@H]4O[C@H](CO)[C@@H](O)[C@H](O[C@@H]5O[C@H](CO)[C@@H](O)[C@H](O)[C@H]5O)[C@H]4O[C@@H]4O[C@H](CO)[C@@H](O)[C@H](O)[C@H]4O)[C@@H]2CC[C@]1(O[C@@H]1O[C@H](CO)[C@@H](O)[C@H](O[C@@H]2O[C@H](CO)[C@@H](O)[C@H](O)[C@H]2O)[C@H]1O[C@@H]1O[C@H](CO)[C@@H](O)[C@H](O)[C@H]1O)C3 [RebM, Rebaudioside M]
- EC50 [2]: 29.5 µM
- Sweetness at 300 ppm [10]: 6.55

- Hill slope nH ([11]; TMD2 open (No C20)): 0.36
- Hill slope nH ([11]; TMD3 open (No C20)): 0.20
- Kd ([11]; binding constant Kd, TMD2 open (No C20)): 2400 nM
- Kd ([11]; binding constant Kd, TMD3 open (+C20), 10 µM C20): 26 nM
- Kd ([11]; binding constant Kd, TMD3 open (No C20)): 3000 nM
Molecule: C=C1C[C@@]23CC[C@H]4[C@@](C)(CCC[C@@]4(C)C(=O)O[C@@H]4O[C@H](CO)[C@@H](O)[C@H](O)[C@H]4O)[C@@H]2CC[C@]1(O[C@@H]1O[C@H](CO)[C@@H](O)[C@H](O)[C@H]1O)C3 [Rubu, Rubusoside]
- Sweetness at 300 ppm [10]: 3.87

- Ki (mM) [1]: Ambiguous
- Competitive inhibition with perillartine [1]: did not show inhibition
- Ki (mM) [5]: Ambiguous
- Competitive inhibition with RebB [5]: did not show strong inhibition
- Competitive inhibition with lactisole [6]: do not compete
Molecule: CC(C)Oc1ccc(NC(=S)NCc2ccc[nH]2)cc1 [S819, 1-((1H-pyrrol-2-yl)methyl)-3-(4-isopropoxyphenyl)thiourea]
- EC50 [8]: 0.07 µM
- EC50 [9]: 0.7 µM

- kon ([12]; [14C]-sucrose radioligand): 15.06 M⁻¹ min⁻¹
- koff ([12]; dissociation by excess cold sucrose at 60 min): 0.1863 min⁻¹
- Kd [12, 17]: 12.3 mM
Molecule: OC[C@H]1O[C@@](CO)(O[C@H]2O[C@H](CO)[C@@H](O)[C@H](O)[C@H]2O)[C@@H](O)[C@@H]1O [[^14C]-sucrose, [^14C]-Sucrose]

Molecule: OC[C@H]1OC(O)[C@H](O)[C@@H](O)[C@@H]1O (some centres unmarked) [glucose]
- Kd (bovine taste bud cells): 3.4 mM

Molecule: OC[C@H]1O[C@@](CO)(O[C@H]2O[C@H](CO)[C@@H](O)[C@H](O)[C@H]2O)[C@@H](O)[C@@H]1O [sucrose]
- Kd (bovine taste bud cells): 1.1 mM

Molecule: Rebaudioside B [RebB]
- Sweetness at 300 ppm [10]: 5.20

- kon ([13]; [3H]-Perillartine radioligand): 184288 M⁻¹ min⁻¹
- koff ([13]; dissociation by excess cold Perillartine at 60 min): 0.5337 min⁻¹
- Kd [13, 17]: 2900 nM
Molecule: [^3H]-Perillartine [[^3H]-Perrilartine]

- kon ([14]; [3H]-Rebaudioside B radioligand, room temperature): 91.82 M⁻¹ min⁻¹
- koff ([14]; dissociation by 1000-fold excess cold Rebaudioside B at 60 min): 0.5321 min⁻¹
- Kd [14, 17]: 5.79 mM
Molecule: [^3H]-Rebaudioside B
